From US20240368135A1 (VERTEX PHARMACEUTICALS INCORPORATED, priority 2021, published 2024) come the findings set out here.

The structures appear in SMILES notation. Some results are limits rather than exact numbers.

human NaV 1.8, sequence (Q9Y5Y9 126-399 limits assumed): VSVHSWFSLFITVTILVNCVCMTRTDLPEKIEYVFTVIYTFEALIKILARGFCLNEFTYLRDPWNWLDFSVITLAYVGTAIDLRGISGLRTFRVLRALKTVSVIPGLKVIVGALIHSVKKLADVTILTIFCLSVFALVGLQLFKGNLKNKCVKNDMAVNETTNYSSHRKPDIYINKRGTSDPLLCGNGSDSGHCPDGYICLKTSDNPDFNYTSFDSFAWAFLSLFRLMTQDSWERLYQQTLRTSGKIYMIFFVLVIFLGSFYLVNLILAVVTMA
human NaV 1.8, sequence (Q9Y5Y9 660-890 limits assumed): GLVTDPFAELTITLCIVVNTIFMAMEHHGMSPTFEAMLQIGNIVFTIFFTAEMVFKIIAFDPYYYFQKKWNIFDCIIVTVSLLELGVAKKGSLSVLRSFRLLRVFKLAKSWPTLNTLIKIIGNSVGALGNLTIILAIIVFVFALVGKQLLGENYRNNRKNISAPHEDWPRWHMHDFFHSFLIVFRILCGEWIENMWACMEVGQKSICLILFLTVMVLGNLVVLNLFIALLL
human NaV 1.8, sequence (Q9Y5Y9 1148-1722 limits assumed): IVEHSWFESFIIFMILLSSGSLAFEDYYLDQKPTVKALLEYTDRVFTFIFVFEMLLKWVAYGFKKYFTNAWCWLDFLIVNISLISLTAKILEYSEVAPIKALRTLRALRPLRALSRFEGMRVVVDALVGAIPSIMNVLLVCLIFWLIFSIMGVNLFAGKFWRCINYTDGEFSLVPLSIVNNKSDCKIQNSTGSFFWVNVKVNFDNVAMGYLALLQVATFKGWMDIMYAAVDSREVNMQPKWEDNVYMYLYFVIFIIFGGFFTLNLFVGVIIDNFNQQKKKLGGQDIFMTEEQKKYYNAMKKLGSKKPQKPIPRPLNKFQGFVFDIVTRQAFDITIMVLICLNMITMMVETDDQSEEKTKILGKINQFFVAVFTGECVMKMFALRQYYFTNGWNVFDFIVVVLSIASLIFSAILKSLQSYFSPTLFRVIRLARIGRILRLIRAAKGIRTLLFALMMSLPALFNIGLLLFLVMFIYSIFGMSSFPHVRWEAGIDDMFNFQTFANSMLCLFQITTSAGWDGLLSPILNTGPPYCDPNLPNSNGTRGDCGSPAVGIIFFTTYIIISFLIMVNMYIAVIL

The first test addresses human NaV 1.8 (Homo sapiens, UniProt Q9Y5Y9). Briefly: E-VIPR assay detecting and measuring NaV inhibition properties. The format is cell-based. As to conditions: HEK cells expressing truncated human NaV 1.8; in the presence of human serum (compound numbers followed by *); read-out: IC50 in the E-VIPR Assay, performed in the presence of human serum. Put shortly:
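HEK cells expressing truncated, fully active human NaV1.8, with KIR2.1 BacMam co-transduction, were loaded with CC2-DMPE/DiSBAC6(3) voltage-sensing dyes for 20 min at room temperature. Compounds were tested in 11-point 3-fold dilutions (300 nM top final), optionally with 25% human serum, under electrical stimulation with FRET read-out.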
For `CCc1c(F)ccc([C@H]2C[C@@](C)(C(F)(F)F)O[C@@H]2C(=O)Nc2cn(S(C)(=O)=O)nc2C)c1OC` (stereo in doubt) [Compound 716, rel-(2S,3R,5S)-3-(3-ethyl-4-fluoro-2-methoxyphenyl)-5-methyl-N-(3-methyl-1-(methylsulfonyl)-1H-pyrazol-4-yl)-5-(trifluoromethyl)tetrahydrofuran-2-carboxamide], the IC50 was no less than 1000 nM.

The test is the same for the next values; noted with them: HEK cells expressing truncated human NaV 1.8; no human serum; read-out: IC50 in the E-VIPR Assay.
With `COc1c([C@H]2[C@H](C(=O)Nc3ccnc(N4C[C@H](C)N(C)CC4=O)c3)O[C@@](C)(C(F)(F)F)[C@H]2C)ccc(F)c1F` [Compound 474, (2R,3S,4S,5R)-3-(3,4-difluoro-2-methoxyphenyl)-N-(2-((S)-4,5-dimethyl-2-oxopiperazin-1-yl)pyridin-4-yl)-4,5-dimethyl-5-(trifluoromethyl)tetrahydrofuran-2-carboxamide], the IC50 is less than 10 nM. The same measure, in the same setting: to `COc1c([C@H]2[C@H](C(=O)NCC3CNC(=O)C3)O[C@@](C)(C(F)(F)F)[C@H]2C)ccc(F)c1F` (stereo partly drawn) [Compound 281, (2R,3S,4S,5R)-3-(3,4-difluoro-2-methoxyphenyl)-4,5-dimethyl-N-((5-oxopyrrolidin-3-yl)methyl)-5-(trifluoromethyl)tetrahydrofuran-2-carboxamide] belongs 100 to 1000 nM; to `COc1c([C@H]2[C@H](C(=O)Nc3cnc(C(C)(C)O)nc3)O[C@@](C)(C(F)(F)F)[C@H]2C)ccc(F)c1F` [Compound 390, (2R,3S,4S,5R)-3-(3,4-difluoro-2-methoxyphenyl)-N-(2-(2-hydroxypropan-2-yl)pyrimidin-5-yl)-4,5-dimethyl-5-(trifluoromethyl)tetrahydrofuran-2-carboxamide], 10 to 100 nM. The same measure, in the same setting: to `C[C@H]1[C@@H](c2ccc(F)c(F)c2OC(F)F)[C@H](C(=O)Nc2ccnnc2)O[C@@]1(C)C(F)(F)F` (stereo in doubt) [Compound 64, rel-(2R,3S,4S,5R)-3-(2-(difluoromethoxy)-3,4-difluorophenyl)-4,5-dimethyl-N-(pyridazin-4-yl)-5-(trifluoromethyl)tetrahydrofuran-2-carboxamide] belongs less than 10 nM. Consider `COc1ncc(NC(=O)[C@@H]2O[C@@](C)(C(F)(F)F)[C@@H](C)[C@H]2c2ccc(F)c(F)c2OC)cc1CO` [Compound 247, (2R,3S,4S,5R)-3-(3,4-difluoro-2-methoxyphenyl)-N-(5-(hydroxymethyl)-6-methoxypyridin-3-yl)-4,5-dimethyl-5-(trifluoromethyl)tetrahydrofuran-2-carboxamide], for which the IC50 was 100 to 1000 nM. On the same count and under the same terms, the value for `COc1c([C@H]2[C@H](C(=O)Nc3cc(C4CN(C)CCO4)ncc3F)O[C@@](C)(C(F)(F)F)[C@H]2C)ccc(F)c1F` (single isomer, unassigned) [Compound 366, rel-(2R*,3S*,4S*,5R*)-3-(3,4-difluoro-2-methoxyphenyl)-N-(5-fluoro-2-(4-methylmorpholin-2-yl)pyridin-4-yl)-4,5-dimethyl-5-(trifluoromethyl)tetrahydrofuran-2-carboxamide] was less than 10 nM; that for `CCOc1c([C@@H]2[C@@H](C(=O)Nc3ccn(C)c(=O)c3)O[C@](C)(C(F)(F)F)[C@@H]2C)ccc(F)c1F` (stereo in doubt) [Compound 102, rel-(2S,3R,4R,5S)-3-(2-ethoxy-3,4-difluorophenyl)-4,5-dimethyl-N-(1-methyl-2-oxo-1,2-dihydropyridin-4-yl)-5-(trifluoromethyl)tetrahydrofuran-2-carboxamide] was no less than 1000 nM.

Turning to `COc1c([C@H]2[C@H](C(=O)NC(C)c3ccn[nH]3)O[C@@](C)(C(F)(F)F)[C@H]2C)ccc(F)c1F` (stereo partly drawn) [Compound 275, (2R,3S,4S,5R)-N-(1-(1H-pyrazol-5-yl)ethyl)-3-(3,4-difluoro-2-methoxyphenyl)-4,5-dimethyl-5-(trifluoromethyl)tetrahydrofuran-2-carboxamide], the IC50 is no less than 1000 nM. As to `COc1c([C@H]2[C@H](C(=O)Nc3ccnc(N4C(=O)CN(C)C[C@@H]4CO)c3)O[C@@](C)(C(F)(F)F)[C@H]2C)ccc(F)c1F` [Compound 511, (2R,3S,4S,5R)-3-(3,4-difluoro-2-methoxyphenyl)-N-(2-((R)-2-(hydroxymethyl)-4-methyl-6-oxopiperazin-1-yl)pyridin-4-yl)-4,5-dimethyl-5-(trifluoromethyl)tetrahydrofuran-2-carboxamide], the IC50 is less than 10 nM. On the same count and under the same terms, to `CC(C)Oc1c([C@@H]2[C@@H](C(=O)Nc3ccnc(S(C)(=N)=O)c3)O[C@](C)(C(F)(F)F)[C@@H]2C)ccc(F)c1F` (single isomer, unassigned) [Compound 118] belongs no less than 1000 nM. Still for that read-out and setting: to `CCOc1c([C@@H]2C[C@](C)(C(F)(F)F)O[C@H]2C(=O)Nc2ccnc(C(O)CO)c2)ccc(F)c1F` (single isomer, unassigned) [Compound 710] belongs 10 to 100 nM; to `CNCC(=O)N(C)c1cc(NC(=O)[C@@H]2O[C@@](C)(C(F)(F)F)[C@@H](C)[C@H]2c2ccc(F)c(F)c2OC)ccn1` [Compound 486, (2R,3S,4S,5R)-3-(3,4-difluoro-2-methoxyphenyl)-4,5-dimethyl-N-(2-(N-methyl-2-(methylamino)acetamido)pyridin-4-yl)-5-(trifluoromethyl)tetrahydrofuran-2-carboxamide], less than 10 nM; to `COc1c(C2C(C(=O)Nc3ccnc(C(=O)O)c3)OC(C)(C(F)(F)F)C2C)ccc(F)c1C(F)F` (single isomer, unassigned) [Compound 174], less than 10 nM. The same measure, in the same setting: to `CCOc1c([C@H]2[C@H](C(=O)Nc3ccnc(S(C)(=N)=O)c3)O[C@@](C)(C(F)(F)F)[C@H]2C)ccc(F)c1C` (single isomer, unassigned) [Compound 128] belongs less than 10 nM; to `COc1c([C@H]2[C@H](C(=O)Nc3ccnc(N4CCN(C)[C@@H](C)C4=O)c3)O[C@@](C)(C(F)(F)F)[C@H]2C)ccc(F)c1F` [Compound 476, (2R,3S,4S,5R)-3-(3,4-difluoro-2-methoxyphenyl)-N-(2-((S)-3,4-dimethyl-2-oxopiperazin-1-yl)pyridin-4-yl)-4,5-dimethyl-5-(trifluoromethyl)tetrahydrofuran-2-carboxamide], 10 to 100 nM. Regarding `C=C(CO)COc1c([C@H]2[C@H](C(=O)Nc3ccc4cnnn4c3)O[C@@](C)(C(F)(F)F)[C@H]2C)ccc(F)c1F` [Compound 622, (2R,3S,4S,5R)-3-[3,4-difluoro-2-[2-(hydroxymethyl)allyloxy]phenyl]-4,5-dimethyl-N-(triazolo[1,5-a]pyridin-6-yl)-5-(trifluoromethyl)tetrahydrofuran-2-carboxamide], the IC50 is less than 10 nM. Still for that read-out and setting: the value for `C[C@H]1[C@@H](c2ccc(F)c(F)c2OCCO)[C@H](C(=O)Nc2ccc(C(N)=O)nc2)O[C@@]1(C)C(F)(F)F` [Compound 615, 5-((2R,3S,4S,5R)-3-(3,4-difluoro-2-(2-hydroxyethoxy)phenyl)-4,5-dimethyl-5-(trifluoromethyl)tetrahydrofuran-2-carboxamido)picolinamide] was 10 to 100 nM; that for `CC(C)Oc1c(C2C(C(=O)Nc3cc(S(C)(=O)=O)ccn3)OC(C)(C(F)(F)F)C2C)ccc(F)c1F` (centres unmarked) [Compound 115, 3-(3,4-difluoro-2-isopropoxy-phenyl)-4,5-dimethyl-N-(4-methylsulfonyl-2-pyridyl)-5-(trifluoromethyl)tetrahydrofuran-2-carboxamide] was no less than 1000 nM. Same read-out and setting: to `COc1c(C2C(C(=O)Nc3cnnc(CO)c3)OC(C)(C(F)(F)F)C2C)ccc(F)c1F` (centres unmarked) [Compound 18, 3-(3,4-difluoro-2-methoxy-phenyl)-N-[6-(hydroxymethyl)pyridazin-4-yl]-4,5-dimethyl-5-(trifluoromethyl)tetrahydrofuran-2-carboxamide] belongs less than 10 nM; to `CCOc1c([C@@H]2[C@@H](C(=O)Nc3ccnc(S(C)(=N)=O)c3)O[C@](C)(C(F)(F)F)[C@@H]2C)ccc(F)c1C` (single isomer, unassigned) [Compound 126], 100 to 1000 nM. In the case of `COc1c([C@H]2[C@H](C(=O)Nc3cc(C4(N)CCOC4)ncc3F)O[C@@](C)(C(F)(F)F)[C@H]2C)ccc(F)c1F` (single isomer, unassigned) [Compound 348, rel-(2R*,3S*,4S*,5R*)-N-(2-(3-aminotetrahydrofuran-3-yl)-5-fluoropyridin-4-yl)-3-(3,4-difluoro-2-methoxyphenyl)-4,5-dimethyl-5-(trifluoromethyl)-tetrahydrofuran-2-carboxamide], the IC50 lay within 10 to 100 nM. Still for that read-out and setting: to `C[C@H]1[C@@H](c2ccc(F)c(F)c2OCCO)[C@H](C(=O)Nc2ccnn2C)O[C@@]1(C)C(F)(F)F` [Compound 547, (2R,3S,4S,5R)-3-(3,4-difluoro-2-(2-hydroxyethoxy)phenyl)-4,5-dimethyl-N-(1-methyl-1H-pyrazol-5-yl)-5-(trifluoromethyl)tetrahydrofuran-2-carboxamide] belongs 100 to 1000 nM; to `Cc1cn(C)c(COc2c([C@H]3[C@H](C(=O)Nc4cccnc4)O[C@@](C)(C(F)(F)F)[C@H]3C)ccc(F)c2F)n1` [Compound 650, (2R,3S,4S,5R)-3-(2-((1,4-dimethyl-1H-imidazol-2-yl)methoxy)-3,4-difluorophenyl)-4,5-dimethyl-N-(pyridin-3-yl)-5-(trifluoromethyl)tetrahydrofuran-2-carboxamide], 10 to 100 nM; to `CCOc1c([C@@H]2[C@@H](C(=O)Nc3ccnc(S(C)(=N)=O)c3)O[C@](C)(C(F)(F)F)[C@@H]2C)ccc(F)c1F` (single isomer, unassigned) [Compound 11], no less than 1000 nM. Same read-out and setting: to `C[C@H]1[C@@H](c2ccc(F)c(F)c2OCCN2CCOCC2)[C@H](C(=O)Nc2cccnc2)O[C@@]1(C)C(F)(F)F` [Compound 587, (2R,3S,4S,5R)-3-(3,4-difluoro-2-(2-morpholinoethoxy)phenyl)-4,5-dimethyl-N-(pyridin-3-yl)-5-(trifluoromethyl)tetrahydrofuran-2-carboxamide] belongs 10 to 100 nM.
